Test results: PubChem BioAssay (NCI)
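Interpolation was linear, between the two tested concentrations surrounding the appropriate level; five concentrations were tested over 48 hours in 96-well plates. The concentration for 50% growth inhibition is given as GI50. TGI: concentration producing complete growth inhibition.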

Legend:
Assay in all cases: growth of human tumour cells (NCI), 48 h
NCI-H23 lung = system: NCI-H23 lung
SNB-75 CNS = system: SNB-75 CNS
NCI/ADR-RES ovarian = system: NCI/ADR-RES ovarian
DU-145 prostate = system: DU-145 prostate
NCI-H460 lung = system: NCI-H460 lung
TK-10 renal = system: TK-10 renal
PC-3 prostate = system: PC-3 prostate
SK-OV-3 ovarian = system: SK-OV-3 ovarian
OVCAR-5 ovarian = system: OVCAR-5 ovarian
SK-MEL-2 melanoma = system: SK-MEL-2 melanoma
786-0 renal = system: 786-0 renal
KM12 colon = system: KM12 colon
RXF 393 renal = system: RXF 393 renal
CAKI-1 renal = system: CAKI-1 renal
ACHN renal = system: ACHN renal
MDA-MB-231 breast = system: MDA-MB-231 breast
UACC-62 melanoma = system: UACC-62 melanoma
U251 CNS = system: U251 CNS
HCT-116 colon = system: HCT-116 colon
SK-MEL-28 melanoma = system: SK-MEL-28 melanoma
UO-31 renal = system: UO-31 renal
SK-MEL-5 melanoma = system: SK-MEL-5 melanoma
HS 578T breast = system: HS 578T breast
MCF7 breast = system: MCF7 breast
A549 NSCLC = system: A549 NSCLC
SN12C renal = system: SN12C renal
A498 renal = system: A498 renal
HT29 colon = system: HT29 colon
SF-268 CNS = system: SF-268 CNS
SF-295 CNS = system: SF-295 CNS
HCC-2998 colon = system: HCC-2998 colon
HOP-92 NSCLC = system: HOP-92 NSCLC
OVCAR-3 ovarian = system: OVCAR-3 ovarian
HCT-15 colon = system: HCT-15 colon
NCI-H522 lung = system: NCI-H522 lung
OVCAR-4 ovarian = system: OVCAR-4 ovarian
NCI-H226 lung = system: NCI-H226 lung
SW-620 colon = system: SW-620 colon
BT-549 breast = system: BT-549 breast
EKVX NSCLC = system: EKVX NSCLC
T-47D breast = system: T-47D breast
UACC-257 melanoma = system: UACC-257 melanoma
MDA-MB-435 = system: MDA-MB-435
M14 melanoma = system: M14 melanoma
RPMI-8226 leukemia = system: RPMI-8226 leukemia
COLO 205 colon = system: COLO 205 colon
MALME-3M melanoma = system: MALME-3M melanoma
HL-60(TB) leukemia = system: HL-60(TB) leukemia
SF-539 CNS = system: SF-539 CNS
OVCAR-8 ovarian = system: OVCAR-8 ovarian
K-562 leukemia = system: K-562 leukemia
MOLT-4 leukemia = system: MOLT-4 leukemia
CCRF-CEM leukemia = system: CCRF-CEM leukemia
SNB-19 CNS = system: SNB-19 CNS
HOP-62 NSCLC = system: HOP-62 NSCLC

## CN1CCN(CCCOc2ccc3nc(Nc4cc(Cl)cc(Cl)c4)ccc3c2)CC1
NCI-H23 lung
  GI50: 1.63 µM
  TGI: 3.54 µM
SNB-75 CNS
  GI50: 1.11 µM
  TGI: 2.56 µM
NCI/ADR-RES ovarian
  GI50: 1.99 µM
  TGI: 5.78 µM
DU-145 prostate
  GI50: 1.57 µM
  TGI: 3.07 µM
NCI-H460 lung
  GI50: 1.54 µM
  TGI: 3.18 µM
TK-10 renal
  GI50: 2.33 µM
  TGI: 3.92 µM
PC-3 prostate
  GI50: 1.93 µM
  TGI: 3.71 µM
SK-OV-3 ovarian
  GI50: 2 µM
  TGI: 3.69 µM
OVCAR-5 ovarian
  GI50: 1.71 µM
  TGI: 3.35 µM
SK-MEL-2 melanoma
  GI50: 2.03 µM
  TGI: 4.04 µM
786-0 renal
  GI50: 1.58 µM
  TGI: 3.08 µM
KM12 colon
  GI50: 1.53 µM
  TGI: 2.99 µM
RXF 393 renal
  GI50: 1.33 µM
  TGI: 2.93 µM
CAKI-1 renal
  GI50: 1.82 µM
  TGI: 3.72 µM
ACHN renal
  GI50: 1.51 µM
  TGI: 2.9 µM
MDA-MB-231 breast
  GI50: 1.56 µM
  TGI: 3.31 µM
UACC-62 melanoma
  GI50: 1.81 µM
  TGI: 3.76 µM
U251 CNS
  GI50: 1.61 µM
  TGI: 3.13 µM
HCT-116 colon
  GI50: 1.58 µM
  TGI: 2.98 µM
SK-MEL-28 melanoma
  GI50: 1.63 µM
  TGI: 3.21 µM
UO-31 renal
  GI50: 1.58 µM
  TGI: 3.24 µM
SK-MEL-5 melanoma
  GI50: 1.76 µM
  TGI: 3.31 µM
HS 578T breast
  GI50: 1.87 µM
  TGI: 5.24 µM
MCF7 breast
  GI50: 1.48 µM
  TGI: 3.05 µM
A549 NSCLC
  GI50: 2.11 µM
  TGI: 3.8 µM
SN12C renal
  GI50: 1.81 µM
  TGI: 3.77 µM
A498 renal
  GI50: 1.8 µM
  TGI: 3.22 µM
HT29 colon
  GI50: 0.548 µM
  TGI: 1.84 µM
SF-268 CNS
  GI50: 1.48 µM
  TGI: 3.02 µM
SF-295 CNS
  GI50: 1.41 µM
  TGI: 2.89 µM
HCC-2998 colon
  GI50: 1.54 µM
  TGI: 3.06 µM
HOP-92 NSCLC
  GI50: 1.46 µM
  TGI: 3.2 µM
OVCAR-3 ovarian
  GI50: 1.56 µM
  TGI: 3.22 µM
HCT-15 colon
  GI50: 0.677 µM
  TGI: 2.11 µM
NCI-H522 lung
  GI50: 2.06 µM
  TGI: 3.74 µM
OVCAR-4 ovarian
  GI50: 1.79 µM
  TGI: 5.65 µM
NCI-H226 lung
  GI50: 2.14 µM
  TGI: 5.68 µM
SW-620 colon
  GI50: 1.68 µM
  TGI: 3.46 µM
BT-549 breast
  GI50: 1.9 µM
  TGI: 3.58 µM
EKVX NSCLC
  GI50: 1.63 µM
  TGI: 3.38 µM
T-47D breast
  GI50: 1.99 µM
  TGI: 4.39 µM
UACC-257 melanoma
  GI50: 2.13 µM
  TGI: 3.85 µM
MDA-MB-435
  GI50: 1.5 µM
  TGI: 2.94 µM
M14 melanoma
  GI50: 1.5 µM
  TGI: 3.08 µM
RPMI-8226 leukemia
  GI50: 2.16 µM
  TGI: 4.78 µM

## CCn1cc(C(=O)O)c(=O)c2cc(F)c(N3CCN(S(=O)(=O)c4ccc(Cl)cc4)CC3)cc21
COLO 205 colon
  GI50: 2.62 µM
  TGI: 5.84 µM
NCI-H23 lung
  GI50: 2.67 µM
  TGI: 7.15 µM
SNB-75 CNS
  GI50: 2.6 µM
  TGI: 9.81 µM
MALME-3M melanoma
  GI50: 1.99 µM
  TGI: 5.25 µM
HL-60(TB) leukemia
  GI50: 2.18 µM
  TGI: 4.81 µM
NCI/ADR-RES ovarian
  GI50: 2.98 µM
  TGI: 8.99 µM
DU-145 prostate
  GI50: 4.11 µM
  TGI: > 100 µM
NCI-H460 lung
  GI50: 3.16 µM
  TGI: > 100 µM
TK-10 renal
  GI50: 3.73 µM
  TGI: > 100 µM
PC-3 prostate
  GI50: 2.31 µM
  TGI: 8.22 µM
SK-OV-3 ovarian
  GI50: 3.28 µM
  TGI: 9.23 µM
SF-539 CNS
  GI50: 4.12 µM
  TGI: > 100 µM
OVCAR-5 ovarian
  GI50: 4.25 µM
  TGI: > 100 µM
SK-MEL-2 melanoma
  GI50: 2.57 µM
  TGI: 5.67 µM
786-0 renal
  GI50: 3.77 µM
  TGI: > 100 µM
KM12 colon
  GI50: 4.07 µM
  TGI: > 100 µM
RXF 393 renal
  GI50: 3.32 µM
  TGI: > 100 µM
CAKI-1 renal
  GI50: 2.75 µM
  TGI: 7.06 µM
ACHN renal
  GI50: 3.09 µM
  TGI: 9.87 µM
MDA-MB-231 breast
  GI50: 2.51 µM
  TGI: > 100 µM
UACC-62 melanoma
  GI50: 2.02 µM
  TGI: 7.44 µM
U251 CNS
  GI50: 3.1 µM
  TGI: > 100 µM
HCT-116 colon
  GI50: 3.18 µM
  TGI: > 100 µM
SK-MEL-28 melanoma
  GI50: 4.88 µM
  TGI: > 100 µM
OVCAR-8 ovarian
  GI50: 2.8 µM
  TGI: > 100 µM
UO-31 renal
  GI50: 2.07 µM
  TGI: 7.66 µM
SK-MEL-5 melanoma
  GI50: 1.8 µM
  TGI: 3.51 µM
K-562 leukemia
  GI50: 2.91 µM
  TGI: > 100 µM
HS 578T breast
  GI50: 4.52 µM
  TGI: > 100 µM
MCF7 breast
  GI50: 2.98 µM
  TGI: > 100 µM
SN12C renal
  GI50: 2.92 µM
  TGI: > 100 µM
A498 renal
  GI50: 1.81 µM
  TGI: 7.47 µM
HT29 colon
  GI50: 2.64 µM
  TGI: 6.21 µM
SF-268 CNS
  GI50: 3.85 µM
  TGI: > 100 µM
SF-295 CNS
  GI50: 3.78 µM
  TGI: 11.8 µM
MOLT-4 leukemia
  GI50: 3.83 µM
  TGI: > 100 µM
HCC-2998 colon
  GI50: 4.1 µM
  TGI: > 100 µM
CCRF-CEM leukemia
  GI50: 2.93 µM
  TGI: > 100 µM
SNB-19 CNS
  GI50: 3.97 µM
  TGI: > 100 µM
OVCAR-3 ovarian
  GI50: 3.51 µM
  TGI: > 100 µM
HCT-15 colon
  GI50: 3.62 µM
  TGI: > 100 µM
OVCAR-4 ovarian
  GI50: 2.2 µM
  TGI: 7.57 µM
NCI-H226 lung
  GI50: 3.02 µM
  TGI: > 100 µM
SW-620 colon
  GI50: 3.43 µM
  TGI: > 100 µM
HOP-62 NSCLC
  GI50: 4.47 µM
  TGI: > 100 µM
BT-549 breast
  GI50: 2.44 µM
  TGI: 7.27 µM
EKVX NSCLC
  GI50: 2.25 µM
  TGI: 9.89 µM
T-47D breast
  GI50: 3.2 µM
  TGI: 14.3 µM
UACC-257 melanoma
  GI50: 2.16 µM
  TGI: 5.5 µM
MDA-MB-435
  GI50: 2.47 µM
  TGI: 7.55 µM
M14 melanoma
  GI50: 2.85 µM
  TGI: > 100 µM
RPMI-8226 leukemia
  GI50: 3.08 µM
  TGI: > 100 µM
